Measured values as given in patent US8969352B2, “Substituted 2-azabicycles and their use as orexin receptor modulators” (Janssen Pharmaceutica NV, priority 2013, dated 2015).
Like-named read-outs stand apart in the source and are kept apart here.

Assays:
human orexin 2 receptor = human orexin 2 receptor (Homo sapiens (Human), UniProt O43614); experiment: Human orexin 2 receptor radioligand binding; details: read-out: hOX2 Ki
Protocol: Human Orexin 2 Receptor Radioligand Binding Studies
(§1) After centrifugation (2K×G, 5 min at 4° C.), the supernatant was aspirated and the pellets frozen and stored at −80° C. […] Each cell pellet from a 15 cm plate was resuspended in 10 mL, stored on ice, and homogenized for 45 sec just prior to addition to the reactions. Competition binding experiments in 96 well polypropylene plates were performed using [^3H]-EMPA (Moraveck Corporation, specific activity=29.6 Ci/mmol), diluted to a 5 nM concentration in PBS (2 nM final concentration). […] The final concentration of DMSO in the reactions is equal to or less than 0.1%. Total and nonspecific binding was determined in the absence and presence of 10 μM almorexant. The total volume of each reaction is 200 μL (20 μL of diluted compounds, 80 μL of [^3H]-EMPA diluted in PBS and 100 μL of the cell suspension). […] The plates were washed 3 times by aspirating 30 ml PBS through the plates. Plates were dried in 55° C. oven for 60 min, scintillation fluid was added, and the radioactivity was counted on a Topcount (Packard).

rat orexin 1 receptor = rat orexin 1 receptor (Rattus norvegicus, UniProt P56718); experiment: Rat orexin 1 receptor radioligand binding; details: read-out: rOX1 Ki
Protocol: (§2) Rat and Human Orexin 1 Receptor Radioligand Binding Studies
as §1, with “sec” for “sec just”, “reactions.” for “reactions. Competition binding experiments in 96 well polypropylene plates were performed using [^3H]-EMPA (Moraveck Corporation, specific activity=29.6 Ci/mmol), diluted to a 5 nM concentration in PBS (2 nM final concentration).”, “[^3H]-(1-(5-(2-fluoro-phenyl)-2-methyl-thiazol-4-yl)-1-((S)-2-(5-phenyl-(1,3,4)oxadiazol-2-ylmethyl)-pyrrolidin-1-yl)-methanone)” for “[^3H]-EMPA”

human orexin 1 receptor = human orexin 1 receptor (Homo sapiens, UniProt O43613); experiment: Human orexin 1 receptor radioligand binding; details: read-out: hOX1 Ki
Protocol: as §2
as §1, with “sec” for “sec just”, “reactions.” for “reactions. Competition binding experiments in 96 well polypropylene plates were performed using [^3H]-EMPA (Moraveck Corporation, specific activity=29.6 Ci/mmol), diluted to a 5 nM concentration in PBS (2 nM final concentration).”, “[^3H]-(1-(5-(2-fluoro-phenyl)-2-methyl-thiazol-4-yl)-1-((S)-2-(5-phenyl-(1,3,4)oxadiazol-2-ylmethyl)-pyrrolidin-1-yl)-methanone)” for “[^3H]-EMPA”

[1] = HEK293 stably expressing human orexin 2 receptor, [3H]-EMPA competitive binding, apparent Ki
[2] = HEK293 cells stably expressing rat orexin 1 receptor, competitive radioligand binding, apparent Ki
[3] = CHO cells stably expressing human orexin 1 receptor, competitive radioligand binding, apparent Ki

human orexin 2 receptor, sequence (O43614 whole entry): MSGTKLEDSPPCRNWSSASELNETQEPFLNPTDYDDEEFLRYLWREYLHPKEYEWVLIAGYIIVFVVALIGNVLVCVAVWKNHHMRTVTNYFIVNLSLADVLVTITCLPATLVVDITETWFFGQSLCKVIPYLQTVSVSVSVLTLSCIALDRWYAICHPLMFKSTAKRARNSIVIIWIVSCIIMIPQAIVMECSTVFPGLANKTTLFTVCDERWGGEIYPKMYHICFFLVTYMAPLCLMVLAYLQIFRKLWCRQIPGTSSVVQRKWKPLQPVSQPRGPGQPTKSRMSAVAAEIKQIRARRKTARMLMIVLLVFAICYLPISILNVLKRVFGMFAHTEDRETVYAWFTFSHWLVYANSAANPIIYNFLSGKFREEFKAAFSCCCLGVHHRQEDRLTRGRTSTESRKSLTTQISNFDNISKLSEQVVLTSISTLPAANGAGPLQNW

`O=C(c1ccc(F)cc1-n1nccn1)N1C[C@H]2C[C@@H](Oc3ccc(C(F)(F)F)cn3)[C@@H]1C2` [Example 44, (4-fluoro-2-(2H-1,2,3-triazol-2-yl)phenyl)((1S,4R,6R)-6-((5-(trifluoromethyl)pyridin-2-yl)oxy)-2-azabicyclo[2.2.1]heptan-2-yl)methanone] was tested, and the Ki (human orexin 2 receptor; [1]) was 2200 nM, the Ki (rat orexin 1 receptor; [2]) was 22 nM and the Ki (human orexin 1 receptor; [3]) was 42 nM.

`O=C(c1cccc(F)c1Br)N1C[C@H]2C[C@@H](Oc3ccc(C(F)(F)F)cn3)[C@@H]1C2` [Example 45, (2-bromo-3-fluorophenyl)((1S,4R,6R)-6-((5-(trifluoromethyl)pyridin-2-yl)oxy)-2-azabicyclo[2.2.1]heptan-2-yl)methanone] gave a Ki (human orexin 2 receptor; [1]) of 1500 nM, a Ki (rat orexin 1 receptor; [2]) of 60 nM and a Ki (human orexin 1 receptor; [3]) of 55 nM.

`O=C(c1cccc2cc[nH]c12)N1C[C@H]2C[C@@H](Oc3ccc(C(F)(F)F)cn3)[C@@H]1C2` [Example 42, (1H-indol-7-yl)((1S,4R,6R)-6-((5-(trifluoromethyl)pyridin-2-yl)oxy)-2-azabicyclo[2.2.1]heptan-2-yl)methanone] showed a Ki (human orexin 2 receptor; [1]) of 5800 nM, a Ki (rat orexin 1 receptor; [2]) of 184 nM and a Ki (human orexin 1 receptor; [3]) of 175 nM.

Molecule `O=C(c1cccc(F)c1-c1ncccn1)N1C[C@H]2C[C@@H](Oc3ccc(Br)cn3)[C@@H]1C2` [Example 48, ((1S,4R,6R)-6-((5-bromopyridin-2-yl)oxy)-2-azabicyclo[2.2.1]heptan-2-yl)(3-fluoro-2-(pyrimidin-2-yl)phenyl)methanone] has a Ki (human orexin 2 receptor; [1]) of 972 nM, a Ki (rat orexin 1 receptor; [2]) of 3 nM and a Ki (human orexin 1 receptor; [3]) of 6 nM.

`Cc1ccc(-n2nccn2)c(C(=O)N2CC3CC(Oc4cnc(C(F)(F)F)cn4)C2C3)n1` (racemic) [Example 2, (R/S)-(6-methyl-3-(2H-1,2,3-triazol-2-yl)pyridin-2-yl)(6-((5-(trifluoromethyl)pyrazin-2-yl)oxy)-2-azabicyclo[2.2.1]heptan-2-yl)methanone] was tested, and the Ki (human orexin 2 receptor; [1]) was 10000 nM, the Ki (rat orexin 1 receptor; [2]) was 200 nM and the Ki (human orexin 1 receptor; [3]) was 342 nM.

`CCOc1ccc(C)nc1C(=O)N1C[C@H]2C[C@@H](Oc3ccc(C(F)(F)F)cn3)[C@@H]1C2` [Example 37, (3-ethoxy-6-methylpyridin-2-yl)((1S,4R,6R)-6-((5-(trifluoromethyl)pyridin-2-yl)oxy)-2-azabicyclo[2.2.1]heptan-2-yl)methanone] gave a Ki (human orexin 2 receptor; [1]) of 1800 nM, a Ki (rat orexin 1 receptor; [2]) of 170 nM and a Ki (human orexin 1 receptor; [3]) of 265 nM.

In the case of `COc1ccc(C(=O)N2CC3CC(Oc4ccc(C(F)(F)F)cn4)C2C3)c(-c2ncccn2)c1` (racemic) [Example 12, (R/S)-(4-methoxy-2-(pyrimidin-2-yl)phenyl)(6-((5-(trifluoromethyl)pyridin-2-yl)oxy)-2-azabicyclo[2.2.1]heptan-2-yl)methanone], the Ki (human orexin 2 receptor; [1]) is reported as greater than 10000 nM, the Ki (rat orexin 1 receptor; [2]) is reported as 44 nM and the Ki (human orexin 1 receptor; [3]) is reported as 59 nM.

Work on `COc1cccc(-c2ccn[nH]2)c1C(=O)N1C[C@H]2C[C@@H](Oc3ccc(C(F)(F)F)cn3)[C@@H]1C2` [Example 39, (2-methoxy-6-(1H-pyrazol-5-yl)phenyl)((1S,4R,6R)-6-((5-(trifluoromethyl)pyridin-2-yl)oxy)-2-azabicyclo[2.2.1]heptan-2-yl)methanone] yielded a Ki (human orexin 2 receptor; [1]) of 108 nM, a Ki (rat orexin 1 receptor; [2]) of 132 nM and a Ki (human orexin 1 receptor; [3]) of 17 nM.

`Cc1ccc(C(=O)N2C[C@H]3C[C@@H](Oc4ccc(C(F)(F)F)cn4)[C@@H]2C3)c(-n2nccn2)n1` [Example 29, (6-methyl-2-(2H-1,2,3-triazol-2-yl)pyridin-3-yl)((1S,4R,6R)-6-((5-(trifluoromethyl)pyridin-2-yl)oxy)-2-azabicyclo[2.2.1]heptan-2-yl)methanone] showed a Ki (human orexin 2 receptor; [1]) greater than 10000 nM, a Ki (rat orexin 1 receptor; [2]) of 55 nM and a Ki (human orexin 1 receptor; [3]) of 47 nM.

For `CCOc1ccc2cccnc2c1C(=O)N1C[C@H]2C[C@@H](Nc3ccc(C(F)(F)F)cn3)[C@@H]1C2` [Example 56, (7-ethoxyquinolin-8-yl)((1S,4S,6R)-6-((5-(trifluoromethyl)pyridin-2-yl)amino)-2-azabicyclo[2.2.1]heptan-2-yl)methanone], the Ki (human orexin 2 receptor; [1]) was 192 nM, the Ki (rat orexin 1 receptor; [2]) was 8 nM and the Ki (human orexin 1 receptor; [3]) was 10 nM.

In the case of `O=C(c1ncccc1-n1nccn1)N1C[C@H]2C[C@@H](Oc3ccc(C(F)(F)F)cn3)[C@@H]1C2` [Example 30, (3-(2H-1,2,3-triazol-2-yl)pyridin-2-yl)((1S,4R,6R)-6-((5-(trifluoromethyl)pyridin-2-yl)oxy)-2-azabicyclo[2.2.1]heptan-2-yl)methanone], the Ki (human orexin 2 receptor; [1]) is reported as 1700 nM, the Ki (rat orexin 1 receptor; [2]) is reported as 19 nM and the Ki (human orexin 1 receptor; [3]) is reported as 22 nM.

`O=C(c1ccccc1-n1nccn1)N1C[C@H]2C[C@@H](Oc3ccc(Br)cn3)[C@@H]1C2` [Example 49, (2-(2H-1,2,3-triazol-2-yl)phenyl)((1S,4R,6R)-6-((5-bromopyridin-2-yl)oxy)-2-azabicyclo[2.2.1]heptan-2-yl)methanone] gave a Ki (human orexin 2 receptor; [1]) of 507 nM, a Ki (rat orexin 1 receptor; [2]) of 6 nM and a Ki (human orexin 1 receptor; [3]) of 6 nM.

`Cc1ccc(-n2nccn2)c(C(=O)N2C[C@H]3C[C@@H](Nc4ccc(C(F)(F)F)cn4)[C@@H]2C3)n1` [Example 54, (6-methyl-3-(2H-1,2,3-triazol-2-yl)pyridin-2-yl)((1S,4S,6R)-6-((5-(trifluoromethyl)pyridin-2-yl)amino)-2-azabicyclo[2.2.1]heptan-2-yl)methanone] gave a Ki (human orexin 2 receptor) of 132 nM, a Ki (rat orexin 1 receptor) of 5 nM and a Ki (human orexin 1 receptor) of 6 nM.

`O=C(c1cc(F)ccc1-c1ncccn1)N1CC2CC(Oc3ccc(C(F)(F)F)cn3)C1C2` (racemic) [Example 19, (R/S)-(5-fluoro-2-(pyrimidin-2-yl)phenyl)(6-((5-(trifluoromethyl)pyridin-2-yl)oxy)-2-azabicyclo[2.2.1]heptan-2-yl)methanone] was tested, and the Ki (human orexin 2 receptor; [1]) was 945 nM, the Ki (rat orexin 1 receptor; [2]) was 18 nM and the Ki (human orexin 1 receptor; [3]) was 9 nM.

For `Cc1ccc(C(=O)N2C[C@H]3C[C@@H](Oc4ccc(C(F)(F)F)cn4)[C@@H]2C3)c(-n2ccnn2)n1` [Example 34, (6-methyl-2-(1H-1,2,3-triazol-1-yl)pyridin-3-yl)((1S,4R,6R)-6-((5-(trifluoromethyl)pyridin-2-yl)oxy)-2-azabicyclo[2.2.1]heptan-2-yl)methanone], the Ki (human orexin 2 receptor; [1]) was 1100 nM, the Ki (rat orexin 1 receptor; [2]) was 117 nM and the Ki (human orexin 1 receptor; [3]) was 462 nM.

Work on `O=C(c1cc(F)ccc1-c1ncccn1)N1C[C@H]2C[C@@H](Nc3ccc(C(F)(F)F)cn3)[C@@H]1C2` [Example 58, (5-fluoro-2-(pyrimidin-2-yl)phenyl)((1S,4S,6R)-6-((5-(trifluoromethyl)pyridin-2-yl)amino)-2-azabicyclo[2.2.1]heptan-2-yl)methanone] yielded a Ki (human orexin 2 receptor; [1]) of 181 nM, a Ki (rat orexin 1 receptor; [2]) of 4 nM and a Ki (human orexin 1 receptor; [3]) of 2 nM.

In the case of `COc1cccc(-c2ncccn2)c1C(=O)N1C[C@H]2C[C@@H](Oc3ccc(C(F)(F)F)cn3)[C@@H]1C2` [Example 40, (2-methoxy-6-(pyrimidin-2-yl)phenyl)((1S,4R,6R)-6-((5-(trifluoromethyl)pyridin-2-yl)oxy)-2-azabicyclo[2.2.1]heptan-2-yl)methanone], the Ki (human orexin 2 receptor; [1]) is reported as 340 nM, the Ki (rat orexin 1 receptor; [2]) is reported as 16 nM and the Ki (human orexin 1 receptor; [3]) is reported as 9 nM.

`COc1ccc(C(=O)N2CC3CC(Oc4ccc(C(F)(F)F)cn4)C2C3)c(-n2nccn2)c1` (racemic) [Example 13] gave a Ki (human orexin 2 receptor; [1]) greater than 10000 nM, a Ki (rat orexin 1 receptor; [2]) of 52 nM and a Ki (human orexin 1 receptor; [3]) of 109 nM.

`O=C(c1ccccc1-n1nccn1)N1C[C@H]2C[C@@H](Nc3cnc(C(F)(F)F)cn3)[C@@H]1C2` [Example 59, (2-(2H-1,2,3-triazol-2-yl)phenyl)((1S,4S,6R)-6-((5-(trifluoromethyl)pyrazin-2-yl)amino)-2-azabicyclo[2.2.1]heptan-2-yl)methanone] showed a Ki (human orexin 2 receptor; [1]) of 213 nM, a Ki (rat orexin 1 receptor; [2]) of 6 nM and a Ki (human orexin 1 receptor; [3]) of 9 nM.

For `O=C(c1cc(F)ccc1-n1nccn1)N1C[C@H]2C[C@@H](Nc3ccc(C(F)(F)F)cn3)[C@@H]1C2` [Example 57, (5-fluoro-2-(2H-1,2,3-triazol-2-yl)phenyl)((1S,4S,6R)-6-((5-(trifluoromethyl)pyridin-2-yl)amino)-2-azabicyclo[2.2.1]heptan-2-yl)methanone], the Ki (human orexin 2 receptor; [1]) was 252 nM, the Ki (rat orexin 1 receptor; [2]) was 6 nM and the Ki (human orexin 1 receptor; [3]) was 5 nM.

Work on `CCOc1ncc2ccccc2c1C(=O)N1CC2CC(Oc3cnc(C(F)(F)F)cn3)C1C2` (racemic) [Example 3] yielded a Ki (human orexin 2 receptor; [1]) of 8900 nM, a Ki (rat orexin 1 receptor; [2]) of 63 nM and a Ki (human orexin 1 receptor; [3]) of 123 nM.

Molecule `Cc1ccc(-n2nccn2)c(C(=O)N2C[C@H]3C[C@@H](Oc4ccc(Br)cn4)[C@@H]2C3)n1` [Example 50, ((1S,4R,6R)-6-((5-bromopyridin-2-yl)oxy)-2-azabicyclo[2.2.1]heptan-2-yl)(6-methyl-3-(2H-1,2,3-triazol-2-yl)pyridin-2-yl)methanone] has a Ki (human orexin 2 receptor; [1]) of 670 nM, a Ki (rat orexin 1 receptor; [2]) of 7 nM and a Ki (human orexin 1 receptor; [3]) of 9 nM.
